Assay results as given in patent US12577217B2, “15-PGDH inhibitor” (KYORIN Pharmaceutical Co., Ltd., priority 2019, dated 2026).
Structures can show the parent of a compound that is named as a salt.

Biological target: T1, recombinant human 15-PGDH (Homo sapiens, UniProt P15428)
T1 construct: purchased R&D Systems
T1 sequence (P15428 1-266): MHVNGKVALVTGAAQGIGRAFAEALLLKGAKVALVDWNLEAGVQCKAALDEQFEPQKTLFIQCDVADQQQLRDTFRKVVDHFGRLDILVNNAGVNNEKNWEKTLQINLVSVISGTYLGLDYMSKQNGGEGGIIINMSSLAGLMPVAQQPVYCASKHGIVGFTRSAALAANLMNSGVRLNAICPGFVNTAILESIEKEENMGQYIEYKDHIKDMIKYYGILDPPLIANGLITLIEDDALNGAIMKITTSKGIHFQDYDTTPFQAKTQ
Experiment: 15-PGDH enzyme inhibition test
Assay type: biochemical
Details: 4 nM recombinant human 15-PGDH, 30 μM PGE2, 1 mM NAD+, 60 minutes after starting the reaction; read-out: IC50 Value
Summary of the method: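 Fluorescence (excitation 340 nm, emission 440 nm) measured 60 min after adding 1 mM NAD+ and 30 μM PGE2 to 4 nM recombinant human 15-PGDH, which had stood 12 min at room temperature with compound in pH 8.0 Tris-HCl buffer. Concentration-response curves yield IC50, binned into potency categories.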

Cn1nc2cc(N3CCOc4cc(C(=O)N5CCCCCCC5)sc43)ccn2c1=O [Example 8-224] gave an IC50 of 10 to 100 nM.

For CC1CN(C(=O)c2cnc3c(c2)CCCN3c2ccn3c(=O)n(C)nc3c2)CCC1(F)F (centres unmarked) [Example 8-144], the IC50 was less than 10 nM.

For O=C(c1cnc2c(c1)OCCN2c1ccn2nnnc2c1)N1CCCCC1 [Example 1-104], the IC50 was less than 10 nM.

CC(C)(C(=O)O)c1ccc(N2CCOc3cc(C(=O)N4CCCCC4)cnc32)cc1 [Example 2-37] was tested, and the IC50 was greater than 100 nM.

In the case of CN1Cc2cc(N3CCCc4cc(C(=O)N5CCC(F)(F)CC5)cnc43)ncc2C1=O [Example 1-85], the IC50 is reported as 10 to 100 nM.

In the case of COC(=O)c1cc2ccc(N3CCOc4cc(C(=O)N5CCCCC5)cnc43)cc2n1C [Example 1-92], the IC50 is reported as less than 10 nM.

With C[C@@H]1CCCCN1C(=O)c1cnc2c(c1)OCCN2c1ccc2c(c1)CN(C)C2=O [Example 8-195] the IC50 was less than 10 nM.

CNC(=O)c1ncc(N2CCCc3cc(C(=O)N4CCC(F)(F)CC4)cnc32)cc1F [Example 1-180] gave an IC50 of less than 10 nM.

With COCn1nc2cc(N3CCOc4cc(C(=O)N5CCC(F)(F)CC5)cnc43)ccn2c1=O [Example 1-43] the IC50 was less than 10 nM.

In the case of CNC(=O)c1ccc(N2CCOc3cc(C(=O)N4CCC(F)(F)CC4)ccc32)cc1OC [Example 6-1, 4-(7-(4,4-Difluoropiperidine-1-carbonyl)-2,3-dihydro-4H-benzo[b][1,4]oxazin-4-yl)-2-methoxy-N-methylbenzamide], the IC50 is reported as less than 10 nM.

Work on O=C(c1cnc2c(c1)CCCN2c1ccn2c(=O)n(C3CC3)nc2c1)N1CCCCC1 [Example 26-1, 2-Cyclopropyl-7-(6-(piperidine-1-carbonyl)-3,4-dihydro-1,8-naphthylidin-1(2H)-yl)-[1,2,4]triazolo[4,3-a]pyridin-3(2H)-one] yielded an IC50 of less than 10 nM.

CCn1nc2cc(N3CCCc4cc(C(=O)N5CCC[C@@H](C(F)F)C5)cnc43)ccn2c1=O [Example 8-167] showed an IC50 of less than 10 nM.

For C[C@H]1CCCN(C(=O)c2cnc3c(c2)OCCN3c2ccn3c(=O)n(C)nc3c2)C1 [Example 8-34], the IC50 was less than 10 nM.

In the case of Cn1nc2cc(N3CCc4cc(C(=O)N5CCCCC5)cnc43)ccn2c1=O [Example 1-109], the IC50 is reported as less than 10 nM.

Cn1nc2cc(N3CCOc4cc(C(=O)N5CCC(C)(C)C5)cnc43)ccn2c1=O [Example 8-100] showed an IC50 of less than 10 nM.

Work on COCCNC(=O)c1cnc2c(c1)OCCN2c1ccn2c(=O)n(C)nc2c1 [Example 8-105] yielded an IC50 of less than 10 nM.

C[C@H]1COc2cc(C(=O)N3CCCCC3)ccc2N(c2ccc(C(=O)O)cc2)C1 [Example 2-10] showed an IC50 of less than 10 nM.

With CC(C)(O)c1ccc(N2CCOc3cc(C(=O)N4CCCCC4)ccc32)cc1 [Example 10-1, (4-(4-(2-Hydroxypropan-2-yl)phenyl)-3,4-dihydro-2H-benzo[b][1,4]oxazin-7-yl)(piperidin-1-yl)methanone] the IC50 was less than 10 nM.

Compound CCN1Cc2cc(N3CCCc4cc(C(=O)N5CCC(F)(F)CC5)cnc43)ccc2C1=O [Example 1-126] has an IC50 of less than 10 nM.

COCn1nc2cc(N3CCCc4cc(C(=O)N5CCC[C@H](C(F)F)C5)cnc43)ccn2c1=O [Example 8-118] showed an IC50 of less than 10 nM.

CCn1nc2cc(N3CCCc4cc(C(=O)N5CCN(C)CC5)cnc43)ccn2c1=O [Example 8-152] gave an IC50 of 10 to 100 nM.

Cn1nc2cc(N3CCc4cc(C(=O)N5CCCCC5)ccc43)ccn2c1=O [Example 1-141] was tested, and the IC50 was less than 10 nM.

Compound CCN1Cc2cc(N3CCCc4cc(C(=O)N5CCN(C(C)=O)CC5)cnc43)ccc2C1=O [Example 8-74] has an IC50 greater than 100 nM.

In the case of Cn1nc2cc(N3CCOc4cc(C(=O)N5CCC[C@H](F)C5)cnc43)ccn2c1=O [Example 8-27], the IC50 is reported as less than 10 nM.

In the case of CN1Cc2cc(N3CCOc4cc(C(=O)C5CCC(F)(F)CC5)cnc43)ccc2C1=O [Example 1-133], the IC50 is reported as less than 10 nM.

CCCn1nc2cc(N3CCCc4cc(C(=O)N5CCCCC5)cnc43)ccn2c1=O [Example 1-202] gave an IC50 of less than 10 nM.

O=C(c1cnc2c(c1)OCCN2c1cccnc1)N1CCCCC1 [Example 1-234] was tested, and the IC50 was 10 to 100 nM.

O=C(c1cnc2c(c1)OCCN2c1ccc2c(=O)[nH]ccc2c1)N1CCCCC1 [Example 1-219] was tested, and the IC50 was less than 10 nM.

Work on O=C(c1cnc2c(c1)CCCN2c1ccc2c(=O)[nH]cnc2c1)N1CCCCC1 [Example 1-155] yielded an IC50 of less than 10 nM.

Compound O=C(O)C1CCC(N2CCOc3cc(C(=O)N4CCCCC4)ccc32)CC1 (centres unmarked) [Example 4-13] has an IC50 of 10 to 100 nM.

CCn1nc2cc(N3CCCc4cc(C(=O)N5CCC(C)CC5)cnc43)ccn2c1=O [Example 8-161] gave an IC50 of less than 10 nM.

For CCN1Cc2cc(N3CCCc4cc(C(=O)N5CCC[C@@H](C(F)F)C5)cnc43)ccc2C1=O [Example 8-93], the IC50 was less than 10 nM.

Compound O=C(c1cnc2c(c1)CCCN2c1ccn2c(=O)[nH]nc2c1)N1CCC[C@@H](CF)C1 [Example 1-146] has an IC50 of less than 10 nM.

NC(=O)Cn1nc2cc(N3CCOc4cc(C(=O)N5CCCCC5)cnc43)ccn2c1=O [Example 6-6] was tested, and the IC50 was less than 10 nM.

For Cn1nc2cc(N3CCCc4cc(C(=O)N5CCOCC5)cnc43)ccn2c1=O [Example 8-126], the IC50 was 10 to 100 nM.

Work on C#CC1CCN(C(=O)c2cnc3c(c2)OCCN3c2ccn3c(=O)n(C)nc3c2)CC1 [Example 8-111] yielded an IC50 of less than 10 nM.

O=C(c1cnc2c(c1)OCCN2c1ccn2c(=O)n(Cc3cccnc3)nc2c1)N1CCCCC1 [Example 1-32] gave an IC50 of less than 10 nM.

In the case of COC(=O)c1ccc2nc(N3CCOc4cc(C(=O)N5CCCCC5)cnc43)cn2c1 [Example 11-5], the IC50 is reported as greater than 100 nM.

CC(O)CCN(C)C(=O)c1cnc2c(c1)OCCN2c1ccn2c(=O)n(C)nc2c1 (centres unmarked) [Example 8-181] gave an IC50 of 10 to 100 nM.

O=C(O)c1ccc(N2CCCS(=O)(=O)c3cc(C(=O)N4CCCCC4)ccc32)cc1 [Example 2-20] gave an IC50 greater than 100 nM.

Compound CNC1CCCN(C(=O)c2cnc3c(c2)OCCN3c2ccn3c(=O)n(C)nc3c2)C1 (centres unmarked) [Example 32-1, 2-Methyl-7-(7-(3-(methylamino)piperidine-1-carbonyl)-2,3-dihydro-4H-pyrido[3,2-b][1,4]oxazin-4-yl)-[1,2,4]triazolo[4,3-a]pyridin-3(2H)-one Trifluoroacetate] has an IC50 greater than 100 nM.

In the case of Cn1nc2cc(N3CCOc4cc(C(=O)N5CCC[C@H]5C(=O)O)cnc43)ccn2c1=O [Example 35-1, (4-(2-Methyl-3-oxo-2,3-dihydro-[1,2,4]triazolo[4,3-a]pyridin-7-yl)-3,4-dihydro-2H-pyrido[3,2-b][1,4]oxazine-7-carbonyl)-L-proline], the IC50 is reported as greater than 100 nM.

CCCN1Cc2cc(N3CCCc4cc(C(=O)N5CCCCC5)cnc43)ccc2C1=O [Example 1-196] showed an IC50 of less than 10 nM.

Cn1nc2cc(N3CCOc4cc(C(=O)N5CCC(C#N)CC5)cnc43)ccn2c1=O [Example 8-183] gave an IC50 of 10 to 100 nM.

Compound Cn1nc2cc(N3CCOc4cc(C(=O)N5CCc6ccccc65)cnc43)ccn2c1=O [Example 8-104] has an IC50 of 10 to 100 nM.

For CN1Cc2cc(N3CCOc4cc(C(=O)N5CCCCC5)cnc43)ncc2C1=O [Example 1-103], the IC50 was less than 10 nM.

With O=C(c1cnc2c(c1)OCCN2c1ccc2c(c1)C(C1CC1)=NS2(=O)=O)N1CCCCC1 [Example 1-167] the IC50 was 10 to 100 nM.

With O=C(c1cnc2c(c1)OCCN2c1ccc2cccnc2c1)N1CCCCC1 [Example 1-257] the IC50 was less than 10 nM.

Cn1nc2cc(N3CCCOc4cc(C(=O)N5CCCC5)cnc43)ccn2c1=O [Example 8-58] was tested, and the IC50 was less than 10 nM.

For CCn1nc2cc(N3CCCc4cc(C(=O)N5CCC(F)(F)C(C)C5)cnc43)ccn2c1=O (centres unmarked) [Example 8-169], the IC50 was less than 10 nM.

With CN(C)C(=O)c1ccc(N2CCOc3cc(C(=O)N4CCCCC4)cnc32)cc1 [Example 6-19] the IC50 was less than 10 nM.

CN1Cc2cc(N3CCOc4cc(C(=O)N5CCC[C@@H](CF)C5)cnc43)ccc2C1=O [Example 8-203] was tested, and the IC50 was less than 10 nM.

For CC1CCN(C(=O)c2cnc3c(c2)OCCN3c2ccn3c(=O)n(C)nc3c2)CC1 [Example 8-44], the IC50 was less than 10 nM.

Cn1nc2cc(N3CCOc4c3ccc(C(=O)N3CCCCC3)c4Cl)ccn2c1=O [Example 1-265] gave an IC50 of less than 10 nM.

Work on CN1C(=O)c2ccc(N3CCOc4cc(C(=O)N5CCCCC5)cnc43)cc2S1(=O)=O [Example 1-165] yielded an IC50 of less than 10 nM.

CN1Cc2cc(N3CCOc4cc(C(=O)N5CCCCC5)cnc43)cnc2C1=O [Example 1-101] gave an IC50 of less than 10 nM.

For N#Cc1ccc(N2CCCc3cc(C(=O)N4CCCCC4)cnc32)cc1 [Example 1-209], the IC50 was less than 10 nM.

O=C(O)c1ccc(N2CCOc3cc(C(=O)N4CCC[C@H](F)C4)cnc32)cc1 [Example 4-8] showed an IC50 of less than 10 nM.

With CCOCCn1nc2cc(N3CCCc4cc(C(=O)N5CCC[C@H](CF)C5)cnc43)ccn2c1=O [Example 1-117] the IC50 was less than 10 nM.

NC(=O)c1ccc(N2CCOc3cc(C(=O)N4CCCCC4)cnc32)cc1 [Example 6-17] showed an IC50 of less than 10 nM.

Cn1nc2cc(N3CCCc4cc(C(=O)N5Cc6ccccc6C5)cnc43)ccn2c1=O [Example 8-131] was tested, and the IC50 was less than 10 nM.

O=C(NC1COC1)c1ccc(N2CCCc3cc(C(=O)N4CCCCC4)cnc32)cc1F [Example 1-62] gave an IC50 of less than 10 nM.

Compound C[C@H]1CCCN1C(=O)c1cnc2c(c1)OCCN2c1ccn2c(=O)n(C)nc2c1 [Example 8-29] has an IC50 of less than 10 nM.

In the case of CN1Cc2cc(N3CCOc4cc([S+]([O-])C5CCCCC5)cnc43)ccc2C1=O (centres unmarked) [Example 7-9], the IC50 is reported as less than 10 nM.

Cn1nc2cc(N3CCOc4cc(C(=O)N5CC6CC6C5)cnc43)ccn2c1=O (centres unmarked) [Example 8-99] was tested, and the IC50 was less than 10 nM.

CCn1nc2cc(N3CCCc4cc(C(=O)N5CCCC5)cnc43)ccn2c1=O [Example 8-148] was tested, and the IC50 was less than 10 nM.

With O=C(c1cnc2c(c1)OCCN2c1ccn2c(=O)n(CC3COC3)nc2c1)N1CCCCC1 [Example 1-36] the IC50 was less than 10 nM.

Cn1nc2cc(N3CCOc4cc(C(=O)N5CCC[C@@H](O)C5)cnc43)ccn2c1=O [Example 8-33] was tested, and the IC50 was less than 10 nM.
